Values joined by “and” are separate entries in the source; they are usually repeats but may differ in a detail not shown here. Equal values may be shown once. “Also recorded” adds a separate entry of the source. Read-outs that look alike come from different tables or passages of the source. Marks after values point to notes of the source that are not given here. Residues, ends and D or L forms follow the SMILES beside them. *: point of attachment. Cbz = O=C(OCc1ccccc1)*
Legend:
SET Ribosome [1] = assay: Cobalt chloride Dose-dependent Modifier Assay, HEK293 mTRdm-fLUC#12; format: cell-based, human; conditions: 6 hours
SET Ribosome [2] = tested on: SET Ribosome
SET Ribosome [3] = assay: TPA Reference Standard Response Modifier Assay with ribosome binding translation inhibitors, HEK293 hTRdm-fLUC#13; format: cell-based, human; conditions: with 100 nM TPA; 6 hours
SET Ribosome [4] = assay: Rapamycin dose response and TPA+Taxol Modifier Assay, MCF7 TR Cell Panel
Protocol: To tease apart the growth and stress responses, cells were treated with varying doses of rapamycin, incubated at 37° C. for 6 hours, and assayed for fLuc activity.
In other studies, the effects of different rapamycin concentrations were measured in combination with the TPA+Taxol Reference Standard response in the MCF7 derived cell lines that express the fLuc reporter either constitutively (CMV lines) or as a part of the TR Expression Cassette (hTR and mTR lines). […] Cells were treated with 100 nM TPA, 500 nM paclitaxel, and varying concentrations of rapamycin, incubated at 37° C. for 6 hours, and assayed for fLuc activity.
Select members of the MCF7 TR Cell Panel were plated into 96-well microtiter plates and processed as described for a Cell Count Dose-dependent Modifier protocol. Rapamycin concentrations were tested for an ability to alter the Reference Standard responses produced by a 100 nM TPA/500 nM paclitaxel combination. Rapamycin was applied at doses ranging from 1 nM to 1 μM concentrations. All dilutions were prepared in complete growth media. Cells were incubated for 6 hrs, processed, and assayed for luciferase activity as described.

[5] = tested on: HCT116 hTRdm-fLUC#32 tumors; conditions: for Tumor Regression during Treatment, Average / Tumor Regression during Treatment, Mean: oral daily 18 days, Cape 500 mg/kg/day, anisomycin L 0.000027, H 0.000054 mg/kg/day
[6] = tested on: HCT116 hTRdm-fLUC#32 tumors; conditions: for Tumor Regression during Treatment, Average / Tumor Regression during Treatment, Mean: oral daily 10 days, Cape 400 mg/kg/day
[7] = in vivo, cited from earlier work
[8] = tested on: HCT116 hTRdm-fLUC#32 tumors; format: in vivo, nude mice; conditions: cremophorEL 0.5 mg/kg/day Q2Dx5; cyclophosphamide 120 mg/kg/day Q4Dx3; IV
SET Ribosome [9] = format: in vivo, nude mice; conditions: individual animals; for % Induction: post- vs pre-treatment
[10] = single listed concentration: dbcAMP 5 mM, TPA 100 nM, Paclitaxel 500 nM, MG132 50 uM, Colchicine 1 uM, MRA 150 nM, Bortezomib 50 nM
[11] = MCF7 TR Class 3/4 lines, 100 nM TPA + 500 nM paclitaxel, 6 hours

[Cl-].[Cl-].[Co+2] [cobalt(II) chloride]
doses repressing background SET Ribosome activity (SET Ribosome [1]; cobalt applied alone): > 50 µM | doses inhibiting TPA SET activation (SET Ribosome [1]; with 100 nM TPA): > 200 µM | doses inhibiting TPA SET activation (SET Ribosome [1]; with 100 nM TPA, listed as CoCl2): ≥ 200 µM | IC50 (SET Ribosome [1]; with 100 nM TPA, read-out: IC50, inhibition of SET activity in cells treated with TPA): ~1000 µM | doses inhibiting SET Ribosome activation by paclitaxel (Taxol) (SET Ribosome [1]; with paclitaxel Reference Standard): > 50 µM | doses inhibiting SET Ribosome activation by paclitaxel (Taxol) (SET Ribosome [1]; with paclitaxel Reference Standard, listed as CoCl2): ≥ 50 µM | IC50 (SET Ribosome [1]; with paclitaxel Reference Standard, read-out: IC50, inhibition of SET Ribosome activation by paclitaxel): ~200 µM

CC(C)C[C@@H](C=O)NC(=O)[C@H](CC(C)C)NC(=O)[C@H](CC(C)C)NC(=O)OCc1ccccc1 [MG132, Z-Leu-Leu-Leu-aldehyde] (Cbz-Leu-Leu-Leu-aldehyde)
SET Response (SET Ribosome [2]): Antagonist/; also recorded: Agonist

COc1cc2c(c(OC)c1OC)-c1ccc(OC)c(=O)cc1[C@@H](NC(C)=O)CC2 [Colchicine, N-[(7S)-1,2,3,10-tetramethoxy-9-oxo-5,6,7,9-tetrahydrobenzo[a]heptalen-7-yl]acetamide]
SET Response (SET Ribosome [2]): Agonist

CC(=O)O[C@H]1C(=O)[C@@]2(C)[C@H]([C@H](OC(=O)c3ccccc3)[C@]3(O)C[C@H](OC(=O)[C@H](O)[C@@H](NC(=O)c4ccccc4)c4ccccc4)C(C)=C1C3(C)C)[C@]1(OC(C)=O)CO[C@@H]1C[C@@H]2O [Paclitaxel, 5β,20-epoxy-1,2α,4,7β,10β,13α-hexahydroxytax-1-1-en-9-14,10-diacetate 2-benzoate 13-ester with (2R,3S)-N-benzoyl-3-phenylisoserine]
SET Response (SET Ribosome [2]; [10]): Agonist

C[C@@H]1C[C@@H]([C@H](O)CC2CC(=O)NC(=O)C2)C(=O)[C@@H](C)C1 [cycloheximide]
IC100 (100% SET Ribosome inhibition) (SET Ribosome [3]): > 10 µM

CNc1ccc2oc(C[C@H]3O[C@@]4(CC[C@H]3C)O[C@H]([C@H](C)C(=O)c3ccc[nH]3)[C@H](C)C[C@H]4C)nc2c1C(=O)O [Calon, Calcimycin]
SET Response (SET Ribosome [2]): Antagonist; also recorded: Agonist

CO[C@H]1C[C@@H]2CC[C@@H](C)[C@@](O)(O2)C(=O)C(=O)N2CCCC[C@H]2C(=O)O[C@H]([C@H](C)C[C@@H]2CC[C@@H](O)[C@H](OC)C2)CC(=O)[C@H](C)/C=C(\C)[C@@H](O)[C@@H](OC)C(=O)[C@H](C)C[C@H](C)/C=C/C=C/C=C/1C [rapamycin]
concentrations giving SET decline in TPA+Taxol treated samples (SET Ribosome [4]; [11]): ≥ 100 nM | dose up to which SET of TPA+Taxol treated samples is super-induced (SET Ribosome [4]; [11]): ≤ 50 nM | dose giving a spike in fLuc activity (SET Ribosome [4]; MCF7 TR Class 3/4 lines, rapamycin alone, 6 hours): 50 nM | doses at which the magnitude of SET is reduced but not eliminated (SET Ribosome [4]; MCF7 cells, 6 hrs): > 50 nM

polyoxyl 35 castor oil [cremophorEL]
Animal weight averages, day 7 ([5]; mouse, in vivo): 22.25 g | Animal weight averages, day 10 ([5]; mouse, in vivo): 22.39 g | Animal weight averages, day 13 ([5]; mouse, in vivo): 22.23 g | Animal weight averages, day 15 ([5]; mouse, in vivo): 21.60 g | Animal weight averages, day 18 ([5]; mouse, in vivo): 21.93 g | Animal weight averages, day 24 ([5]; mouse, in vivo): 21.59 g | Animal weight averages, day 31 ([5]; mouse, in vivo): 20.22 g

CC(C)C[C@H](NC(=O)[C@H](Cc1ccccc1)NC(=O)c1cnccn1)B(O)O [Bortezomib (Velcade), [(1R)-3-methyl-1-[[(2S)-1-oxo-3-phenyl-2-[(pyrazinylcarbonyl)amino]propyl]amino]butyl] boronic acid]
SET Response (SET Ribosome [2]; [10]): Antagonist/; also recorded: Agonist

COc1ccc(C[C@H](N)C(=O)N[C@H]2[C@@H](O)[C@H](n3cnc4c(N(C)C)ncnc43)O[C@@H]2CO)cc1 [puromycin]
IC100 (100% SET Ribosome inhibition) (SET Ribosome [3]): > 25 µM

CCCCCOC(=O)Nc1nc(=O)n([C@@H]2O[C@H](C)[C@@H](O)[C@H]2O)cc1F [capecitabine, pentyl [1-(3,4-dihydroxy-5-methyltetrahydrifuran-2-yl)-5-fluoro-2-oxo-1H-pyrimidine-4-yl]carbamate]
survival mean ([6]; Example 3 text on FIG. 16): 47 days | sacrifice mean ([6]; Kaplan-Meier, FIG. 16 description): 47 days | Tumor Regression during Treatment, Average [6]: 35.2% | Tumor Regression during Treatment, Mean [6]: 35.2% | Tumor Regression during Treatment, Average ([6]; listed as Cape): 29.4% | Tumor Regression during Treatment, Mean ([6]; listed as Cape): 35.2% | time of maximal metabolite concentration in the plasma ([7]; iv): 2 to 3 h | Animal weight averages, day 7 ([5]; mouse, in vivo): 20.88 g | Animal weight averages, day 10 ([5]; mouse, in vivo): 20.88 g | Animal weight averages, day 13 ([5]; mouse, in vivo): 20.36 g | Animal weight averages, day 15 ([5]; mouse, in vivo): 19.38 g | Animal weight averages, day 18 ([5]; mouse, in vivo): 18.50 g | Animal weight averages, day 24 ([5]; mouse, in vivo): 19.56 g | Animal weight averages, day 31 ([5]; mouse, in vivo): 21.17 g | Animal weight averages, day 35 ([5]; mouse, in vivo): 22.32 g | Animal weight averages, day 38 ([5]; mouse, in vivo): 22.99 g | spontaneous death ([5]; mouse, in vivo): one | survival mean ([5]; mouse, in vivo): 24 days | Tumor Regression during Treatment, Average [5]: 53.2% | Tumor Regression during Treatment, Mean [5]: 56% | Tumor Regression during Treatment, Average ([5]; listed as Cape): 53.2% | Tumor Regression during Treatment, Mean ([5]; listed as Cape): 56.0%

O=P1(N(CCCl)CCCl)NCCCO1 (stereo not shown) [Cyclophosphamide, RS-N,N-bis(2-chloroethyl)-1,3,2-oxazaphosphinan-2-amine 2-oxide]
effect on tumor growth [8]: slowed tumor growth | 6 hr Post-treatment Value (bioluminescence signal intensity) (SET Ribosome [9]; IV, CremophorEL 0.5 mg/kg, paclitaxel 20 mg/kg, cyclophosphamide 120 mg/kg, average tumor size 125 mg): 38.6 ×10e6 photons and 50.4 ×10e6 photons and 101.0 ×10e6 photons and 39.3 ×10e6 photons and 82.5 ×10e6 photons and 56.8 ×10e6 photons | 6 hr Post-treatment Value (bioluminescence signal intensity) (SET Ribosome [9]; average tumor size 500 mg): 75.0 ×10e6 photons and 81.5 ×10e6 photons and 48.8 ×10e6 photons | % Induction (SET Ribosome [9]; average tumor size 125 mg): 12,866.7% *** and 381.8% and 167.2% and 13,100.0% *** and 373.3% and 18,933.3% *** | % Induction (SET Ribosome [9]; average tumor size 500 mg): 204.9% and 368.8% and 109.7% | elimination half-life ([7]; po): 3 to 12 h | oral bioavailability ([7]; po): > 75% | dose excreted in the urine as unchanged drug [7]: 5-25%
